In the assay the target is human CCR6 (Homo sapiens (Human), UniProt P51684). The assay can be described thus: Calcium activity assay on the FLIPR Tetra in HEK-Gqi5 cells stably expressing human CCR6 (MIP3α as positive control agonist). Type of assay: cell-based. As for the experimental part:
HEK-Gqi5 cells stably expressing human CCR6 were cultured in DMEM high glucose, 10% FBS, 1% PSA, 400 ug/ml geneticin and 50 ug/ml hygromycin. Appropriate positive control chemokine (MIP3α) was used as the positive control agonist for screening compound-induced calcium activity assayed on the FLIPR^Tetra. The drug plates were prepared in 384-well microplates using the EP3 and the MultiPROBE robotic liquid handling systems. Compounds disclosed herein were tested for CCR6 activity.

Chain of human CCR6 (P51684 whole entry): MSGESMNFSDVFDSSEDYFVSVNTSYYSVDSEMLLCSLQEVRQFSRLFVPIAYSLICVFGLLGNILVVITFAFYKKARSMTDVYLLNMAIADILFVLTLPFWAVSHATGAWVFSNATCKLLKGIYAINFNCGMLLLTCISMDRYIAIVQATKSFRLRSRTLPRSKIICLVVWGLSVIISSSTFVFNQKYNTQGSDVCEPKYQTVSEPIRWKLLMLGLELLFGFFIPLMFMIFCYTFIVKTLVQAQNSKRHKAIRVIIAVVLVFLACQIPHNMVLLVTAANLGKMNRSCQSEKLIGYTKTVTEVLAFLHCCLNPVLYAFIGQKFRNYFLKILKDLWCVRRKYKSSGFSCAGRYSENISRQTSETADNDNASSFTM

As for `CN1CCN(S(=O)(=O)c2c(Cl)ccc(Nc3c(NC4c5ccoc5CCC4(C)C)c(=O)c3=O)c2O)CC1` (stereo not shown) [Compound 49, 3-((4-chloro-2-hydroxy-3-((4-methylpiperazin-1-yl)sulfonyl)phenyl)amino)-4-((5,5-dimethyl-4,5,6,7-tetrahydrobenzofuran-4-yl)amino)cyclobut-3-ene-1,2-dione], the “CCR6 % Antagonism” value is given as 98% and the IC50 amounted to 31 nM.

Take `CCC(C)(Nc1c(Nc2ccc(Cl)c(C(=O)N(C)C)c2O)c(=O)c1=O)c1ccccc1` (stereo not shown) [Compound 72, 6-chloro-3-((3,4-dioxo-2-((2-phenylbutan-2-yl)amino)cyclobut-1-en-1-yl)amino)-2-hydroxy-N,N-dimethylbenzamide]: the “CCR6 % Antagonism” value is 95% and the IC50 was 46 nM.

These data come from patent US11208377B2, “3,4-disubstituted 3-cyclobutene-1,2-diones and use thereof” (ALLERGAN, INC., priority 2017, dated 2021).
